Source: patent publication US7659270B2, “Hepatitis C virus inhibitors” (Bristol-Myers Squibb Company, priority 2006, dated 2010)

Test system: HCV 1b-377-neo replicon cells
Experiment: HCV replicon assay (HCV 1b-377-neo replicon cells)
Format: cell-based, Hepatitis C virus genotype 1b
Conditions: Hepatitis C virus, read-out: EC50 range against HCV 1b (Range)
Method: An HCV Replion assay was utilized in the present disclosure, and was prepared, conducted and validated as described in commonly owned PCT/US2006/022197 and in O'Boyle et. al. Antimicrob Agents Chemother. April 2005;49(4): 1346-53.
HCV 1b-377-neo replicon cells were used to test the currently described compound series as well as cells resistant to compound A due to a Y2065H mutation in NS5A (described in application PCT/US2006/022197). The compounds tested were determined to have more than 10-fold less inhibitory activity on cells resistant to compound A than wild-type cells indicating a related mechanism of action between the two compound series. Thus, the compounds of the present disclosure can be effective to inhibit the function of the HCV NS5A protein and are understood to be as effective in combinations as previously described in application PCT/US2006/022197 and commonly owned WO/04014852. Further, the compounds of the present disclosure can be effective against the HCV 1b genotype. It should also be understood that the compounds of the present disclosure can inhibit multiple genotypes of HCV. […] In one embodiment compounds of the present disclosure are active against the 1a, 1b, 2a, 2b, 3a, 4a, and 5a genotypes.

Row | SMILES | EC50 [nM]
1 | O=C([C@H](O)c1ccccc1)N1CCC[C@H]1c1ncc(-c2ccc(-c3ccc(-c4cnc([C@@H]5CCCN5C(=O)[C@H](O)c5ccccc5)[nH]4)cn3)cc2)[nH]1 [Example 133, (1R)-2-((2S)-2-(5-(6-(4-(2-((2S)-1-((2R)-2-hydroxy-2-phenylacetyl)-2-pyrrolidinyl)-1H-imidazol-5-yl)phenyl)-3-pyridinyl)-1H-imidazol-2-yl)-1-pyrrolidinyl)-2-oxo-1-phenylethanol] | 1 to 99
2 | COC(=O)N[C@H](C(=O)N1CCC[C@H]1c1ncc(-c2cnc(-c3ccc(-c4[nH]c([C@@H]5CCCN5C(=O)[C@@H](NC(=O)OC)C(C)C)nc4C(F)(F)F)cc3)nc2)[nH]1)C(C)C [Example J48, methyl ((1S)-1-(((2S)-2-(5-(2-(4-(2-((2S)-1-((2S)-2-((methoxy-carbonyl)amino)-3-methyl-butanoyl)-2-pyrrolidinyl)-4-(trifluoromethyl)-1H-imidazol-5-yl)phenyl)-5-pyrimidinyl)-1H-imidazol-2-yl)-1-pyrroli-dinyl)carbon-yl)-2-methylpro-pyl)carba-mate] | 0.01 to 0.999
3 | CN(C)[C@@H](C(=O)N1CCC[C@H]1c1ncc(-c2ccc(-c3ccc(-c4cnc([C@@H]5CCCN5C(=O)[C@@H](c5ccccc5)N(C)C)[nH]4)nn3)cc2)[nH]1)c1ccccc1 [Example 152j-9, (1R)-2-((2S)-2-(5-(6-(4-(2-((2S)-1-((2R)-2-(dimethylamino)-2-phenylacetyl)-2-pyrrolidinyl)-1H-imidazol-5-yl)phenyl)-3-pyridazinyl)-1H-imidazol-2-yl)-1-pyrrolidinyl)-N,N-dimethyl-2-oxo-1-phenylethanamine] | 1 to 99
4 | COC(=O)N[C@@H](C(=O)N1CCC[C@H]1c1ncc(-c2ccc(-c3ccc(-c4cnc([C@@H]5CCCN5C(=O)[C@H](NC(=O)OC)c5ccccc5)[nH]4)nc3)cc2)[nH]1)c1ccccc1 [Example 147, methyl((1R)-2-((2S)-2-(5-(5-(4-(2-((2S)-1-((2R)-2-((methoxycarbonyl)amino)-2-phenylacetyl)-2-pyrrolidinyl)-1H-imidazol-5-yl)phenyl)-2-pyridinyl)-1H-imidazol-2-yl)-1-pyrrolidinyl)-2-oxo-1-phenylethyl)carbamate] | 0.01 to 0.999
5 | C[C@H](NC(=O)[C@@H](c1ccccc1)N(C)C)c1ncc(-c2ccc(-c3ccc(-c4cnc([C@@H]5CCCN5C(=O)[C@@H](c5ccccc5)N(C)C)[nH]4)nn3)cc2)[nH]1 [Example 152j-13, (2R)-2-(dimethylamino)-N-((1S)-1-(5-(4-(6-(2-((2S)-1-((2R)-2-(dimethylamino)-2-phenylacetyl)-2-pyrrolidinyl)-1H-imidazol-5-yl)-3-pyridazinyl)phenyl)-1H-imidazol-2-yl)ethyl)-2-phenylacetamide] | 1 to 99
6 | COC(=O)NC(C(=O)N1CCC[C@H]1c1ncc(-c2cnc(-c3ccc(-c4[nH]c([C@@H]5CCCN5C(=O)C(NC(=O)OC)c5ccccc5)nc4C(F)(F)F)cc3)nc2)[nH]1)c1ccccc1 (stereo partly drawn) [Example J46, methyl ((1R)-2-((2S)-2-(5-(4-(5-(2-((2S)-1-((2R)-2-((methoxy-carbonyl)amino)-2-phenylacetyl)-2-pyrrolidinyl)-1H-imidazol-5-yl)-2-pyrimi-dinyl)phenyl)-4-(trifluoromethyl)-1H-imida-zol-2-yl)-1-pyrrolidinyl)-2-oxo-1-phenyleth-yl)carbamate] | 0.01 to 0.999
7 | COC(=O)N[C@@H](C(=O)N[C@@H](C)c1ncc(-c2ccc(-c3ccc(-c4cnc([C@@H]5CCCN5C(=O)[C@H](NC(=O)OC)c5ccccc5)[nH]4)cn3)cc2)[nH]1)c1ccccc1 [Example 152j-12, methyl ((1R)-2-((2S)-2-(5-(6-(4-(2-((1S)-1-(((2R)-2-((methoxycarbonyl)a-mino)-2-phenyl-acetyl)amino)eth-yl)-1H-imidazol-5-yl)phenyl)-3-pyridinyl)-1H-imidazol-2-yl)-1-pyrrolidinyl)-2-oxo-1-phenylethyl)carbamate] | 0.01 to 0.999
8 | COC(=O)N[C@@H](C)C(=O)N1CCC[C@H]1c1ncc(-c2cnc(-c3ccc(-c4[nH]c([C@@H]5CCCN5C(=O)[C@H](C)NC(=O)OC)nc4C(F)(F)F)cc3)nc2)[nH]1 [Example J50, methyl ((1S)-2-((2S)-2-(5-(4-(5-(2-((2S)-1-(N-(methoxy-carbonyl)-L-alanyl)-2-pyrrolidinyl)-1H-imidazol-5-yl)-2-pyrimi-dinyl)phenyl)-4-(trifluoromethyl)-1H-imida-zol-2-yl)-1-pyrrolidinyl)-1-methyl-2-oxoeth-yl)carbamate] | 0.01 to 0.999
9 | COC(=O)N[C@@H](C(=O)N[C@@H](C)c1ncc(-c2ccc(-c3ccc(-c4cnc([C@H](C)NC(=O)[C@H](NC(=O)OC)c5ccccc5)[nH]4)cn3)nc2)[nH]1)c1ccccc1 [Example 153c-7, dimethyl (2,2′-bipyridine-5,5′-diylbis (1H-imidazole-5,2-diyl (1S)-1,1-ethanediyl-imino((1R)-2-oxo-1-phenyl-2,1-ethane-diyl)))biscarba-mate] | 1 to 99
10 | COC(=O)N[C@@H](C(=O)N(C)[C@@H](C)c1ncc(-c2ccc(-c3ncc(-c4cnc([C@@H]5CCCN5C(=O)[C@@H](c5ccccc5)N5CCCCC5)[nH]4)cn3)cc2)[nH]1)c1ccccc1 [Example 152l-1, methyl ((1R)-2-(meth-yl((1S)-1-(4-(4-(5-(2-((2S)-1-((2R)-2-phenyl-2-(1-piperi-dinyl)acetyl)-2-pyrrolidinyl)-1H-imidazol-5-yl)-2-pyrimi-dinyl)phenyl)-1H-imidazol-2-yl)eth-yl)amino)-2-oxo-1-phenyl-ethyl)carbamate] | 0.01 to 0.999
11 | COC(=O)N[C@H](C(=O)N1CCCC1c1ncc(-c2cc(C)c(-c3c(C)cc(-c4cnc([C@@H]5CCCN5C(=O)[C@@H](NC(=O)OC)C(C)C)[nH]4)cc3C)c(C)c2)[nH]1)C(C)C (stereo partly drawn) [Example F71] | 0.01 to 0.999
12 | CCN(CC)[C@@H](C(=O)N1CCC[C@H]1c1ncc(-c2ccc(-c3ncc(-c4c[nH]c([C@@H]5CCCN5C(=O)[C@H](C)NC(=O)OC)n4)cn3)cc2)[nH]1)c1ccccc1 [Example D77, methyl ((1S)-2-((2S)-2-(5-(2-(4-(2-((2S)-1-((2R)-2-(diethyl-amino)-2-phenyl-acetyl)-2-pyrroli-dinyl)-1H-imidazol-5-yl)phenyl)-5-pyrimi-dinyl)-1H-imida-zol-2-yl)-1-pyrrolidinyl)-1-methyl-2-oxoeth-yl)carbamate] | 0.01 to 0.999
13 | COC(=O)N[C@@H](C(=O)N(C)[C@@H](C)c1ncc(-c2ccc(-c3ccc(-c4cnc([C@@H]5CCCN5C(=O)[C@@H](c5ccccc5)N5CCCCC5)[nH]4)cc3)cc2)[nH]1)c1ccccc1 [Example 131.1-2, methyl((1R)-2-(methyl((1S)-1-(5-(4′-(2-((2S)-1-((2R)-2-phenyl-2-(1-piperidinyl)acetyl)-2-pyrrolidinyl)-1H-imidazol-5-yl)-4-biphenylyl)-1H-imidazol-2-yl)ethyl)amino)-2-oxo-1-phenylethyl)carbamate] | 0.01 to 0.999
14 | COC(=O)N[C@@H](C)C(=O)N(C)[C@@H](C)c1ncc(-c2ccc(-c3ccc(-c4[nH]c([C@@H]5CCCN5C(=O)[C@H](C)NC(=O)OC)nc4C(F)(F)F)cc3)cc2)[nH]1 [Example J42.a, methyl ((1S)-2-((2S)-2-(5-(4′-(2-((1S)-1-((N-(methoxy-carbonyl)-L-alanyl)(meth-yl)ami-no)ethyl)-1H-imidazol-5-yl)-4-biphenylyl)-4-(trifluoromethyl)-1H-imida-zol-2-yl)-1-pyrrolidinyl)-1-methyl-2-oxoeth-yl)carbamate] | 0.01 to 0.999
15 | COC(=O)N[C@@H](C)C(=O)N1CCC[C@H]1c1nc(-c2cnc(-c3ccc(-c4cnc([C@@H]5CCCN5C(=O)[C@H](C)NC(=O)OC)[nH]4)c(F)c3)nc2)c[nH]1 [Example D67, methyl ((1S)-2-((2S)-2-(5-(2-flouro-4-(5-(2-((2S)-1-(N-(methoxy-carbonyl)-L-alanyl)-2-pyrroli-dinyl)-1H-imida-zol-5-yl)-2-pyrimi-dinyl)phenyl)-1H-imida-zol-2-yl)-1-pyrrolidinyl)-1-methyl-2-oxoeth-yl)carbamate] | 0.01 to 0.999
16 | CN(C)[C@@H](C(=O)N1CCC[C@H]1c1ncc(-c2ccc(-c3ccc(-c4cnc([C@@H]5CCCN5C(=O)[C@@H](c5ccccc5)N(C)C)[nH]4)nn3)nn2)[nH]1)c1ccccc1 [Example 153c-1] | 1 to 99
17 | CN(C)[C@@H](C(=O)N1CCC[C@H]1c1ncc(-c2ccc(-c3ncc(-c4cnc([C@@H]5CCCN5C(=O)[C@@H](c5ccccc5)N(C)C)[nH]4)cn3)cc2)[nH]1)c1ccccc1 [Example 152j-1, (1R)-2-((2S)-2-(5-(2-(4-(2-((2S)-1-((2R)-2-(dimethylamino)-2-phenylacetyl)-2-pyrrolidinyl)-1H-imidazol-5-yl)phenyl)-5-pyrimidinyl)-1H-imidazol-2-yl)-1-pyrrolidinyl)-N,N-dimethyl-2-oxo-1-phenylethanamine] | 1 to 99
18 | CC(=O)N[C@@H](C(=O)N1CCC[C@H]1c1ncc(-c2ccc(-c3ccc(-c4cnc([C@@H]5CCCN5C(=O)[C@H](NC(C)=O)c5ccccc5)[nH]4)cn3)cc2)[nH]1)c1ccccc1 [Example 139, N-((1R)-2-((2S)-2-(5-(6-(4-(2-((2S)-1-((2R)-2-acetamido-2-phenylacetyl)-2-pyrrolidinyl)-1H-imidazol-5-yl)phenyl)-3-pyridinyl)-1H-imidazol-2-yl)-1-pyrrolidinyl)-2-oxo-1-phenylethyl)acetamide] | 0.01 to 0.999
